pIC50: −log10 of the molar value. Like-named read-outs stand apart in the source and are kept apart here.
What was measured:
colon cancer xenografts = settings: dose levels that were well tolerated; cited from earlier work
Topoisomerase I [1] = biological target: T1, Topoisomerase I (Homo sapiens, UniProt P11387); experiment: Induction of Topoisomerase I-mediated DNA cleavage; type: biochemical; settings: 22d compared with CPT
T1 construct: supercoiled DNA relaxation and DNA cleavage assays
T1 sequence (P11387 2-765): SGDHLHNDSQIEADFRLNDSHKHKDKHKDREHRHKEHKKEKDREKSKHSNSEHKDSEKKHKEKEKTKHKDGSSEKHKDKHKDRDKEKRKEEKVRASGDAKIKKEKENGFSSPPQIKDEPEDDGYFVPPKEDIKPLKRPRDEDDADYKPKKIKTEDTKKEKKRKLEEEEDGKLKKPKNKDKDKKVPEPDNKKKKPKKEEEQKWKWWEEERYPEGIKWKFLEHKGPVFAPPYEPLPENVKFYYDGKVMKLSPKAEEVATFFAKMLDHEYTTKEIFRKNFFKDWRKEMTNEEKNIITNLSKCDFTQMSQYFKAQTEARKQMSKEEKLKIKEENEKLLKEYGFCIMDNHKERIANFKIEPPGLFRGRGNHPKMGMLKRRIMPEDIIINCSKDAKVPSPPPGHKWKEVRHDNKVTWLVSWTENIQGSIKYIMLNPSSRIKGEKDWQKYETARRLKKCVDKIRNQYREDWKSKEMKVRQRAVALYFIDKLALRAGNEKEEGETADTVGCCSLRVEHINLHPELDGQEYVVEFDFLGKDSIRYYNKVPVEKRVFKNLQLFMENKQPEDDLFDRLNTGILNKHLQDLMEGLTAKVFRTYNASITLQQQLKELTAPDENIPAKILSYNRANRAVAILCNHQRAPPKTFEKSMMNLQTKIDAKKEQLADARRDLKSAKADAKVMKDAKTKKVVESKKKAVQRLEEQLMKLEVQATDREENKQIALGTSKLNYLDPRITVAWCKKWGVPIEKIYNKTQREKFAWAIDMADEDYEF

Topoisomerase I [2] = biological target: T1, Topoisomerase I; experiment: Inhibition of Topoisomerase I-mediated relaxation of supercoiled DNA; type: biochemical; settings: 22d compared with CPT
[3] = tested on: HL-60 human promyelocytic leukemic cells; experiment: Cytotoxicity, HL-60 cells; type: cell-based
Method: Cytotoxicity and Topoisomerase I-mediated effect studies of compounds 22d and (20S)-camptothecin were performed at the Laboratory for Bioorganic Chemistry, Memorial Sloan-Kettering Institute Cancer Center, New York with the following results:
1. IC50 (HL-60 human promyelocytic leukemic cells, μmol): 0.004 (22d); 0.004 (CPT).

[4] = tested on: 833 K human teratocarcinoma cells; experiment: Cytotoxicity, 833 K cells; type: cell-based; settings: read-out: IC50 (833 K human teratocarcinoma cells)
Method: Cytotoxicity and Topoisomerase I-mediated effect studies of compounds 22d and (20S)-camptothecin were performed at the Laboratory for Bioorganic Chemistry, Memorial Sloan-Kettering Institute Cancer Center, New York with the following results: […]

[5] = tested on: thirteen human xenograft lines, including colon, lung, breast, stomach, ovary, and malignant melanoma; settings: 20% interlipid formulation, intramuscularly and orally, non-toxic doses; cited from earlier work

Structure (SMILES) | efficacy in mice carrying colon cancer xenografts (colon cancer xenografts) | potency in the induction of Topoisomerase I-mediated DNA cleavage (Topoisomerase I [1]) | potency in the inhibition of Topoisomerase I-mediated relaxation of supercoiled DNA (Topoisomerase I [2]) | pIC50 ([3]; HL-60, read-out: IC50 (HL-60 human promyelocytic leukemic cells)) | pIC50 ([4]; 833K) | effect on growth of human xenograft lines [5] | pIC50 ([3]; HL-60 cells, cytotoxicity, read-out: IC50 (HL-60 human promyelocytic leukemic cells)) | pIC50 ([4]; 833 K cells, cytotoxicity)
CCC1(O)C(=O)OCc2c1cc1n(c2=O)Cc2cc3c(N)cccc3nc2-1 (racemic) [Racemic 9-aminocamptothecin, 9-aminocamptothecin] | very effective |  |  |  |  |  |  | 
CC[C@@]1(O)C(=O)OCc2c1cc1n(c2=O)Cc2cc3ccccc3nc2-1 [CPT, (20S)-camptothecin] |  | Same potency | Same potency | 8.40 | 8.26 | suppressed growth and induced regression of cancer in thirteen human xenograft lines |  | 
CC[C@@]1(O)C(=O)OCc2c1cc1n(c2=O)Cc2c-1nc1ccccc1c2[Si](C)(C)C [Compound 22d, (20S)-7-Trimethylsilylcamptothecin] |  | Same potency | Same potency |  |  |  | 8.40 | 8.36

— US6252079A, “Intermediates in the synthesis of camptothecin and related compounds and synthesis thereof” (University of Pittsburgh, priority 1997, dated 2001)
